Where two headings read alike, the source gives them in different places.
How the values were obtained:
[1] = tested on: adjuvant-induced arthritis; assay: Established adjuvant-induced arthritis in rats (paw volume); format: in vivo, Charles River Lewis male rats; details: for ED50: read-out: Adjuvant Arthritic ED50; for Paw volume reduction at indicated daily dose (Adjuvant Arthritic): oral, daily dose 9 (mg/kg), 7 days, printed in the ED50 column, footnote 1
[2] = tested on: writhing induced by phenylquinone; assay: Phenylquinone writhing test (analgesic activity); format: in vivo, female white mice; details: read-out: Phenylquinone Writhing ED50
Experimental: PHENYLQUINONE WRITHING TEST
A test compound suspended in 1% methylcellulose was given orally to fasted (17-21 hours) female white mice, 5-20 animals per double blind test. Aqueous (0.01% phenyl-p-benzoquinone)phenylquinone, 0.20 ml per mouse, was injected intraperitoneally 6 minutes before observations were begun.

[3] = rat, oral gavage daily for 7 days, ED50% decrease from control paw volume, uninjected left hind paw, one day after last dose
[4] = mouse, oral, fasted 17-21 hours, effective analgesic dose for 50% of the mice

CC(=O)Oc1ccccc1C(=O)O [Aspirin, reference compound] was tested, and the ED50 ([1]; Rattus norvegicus, po) was 305 mg/kg and the ED50 ([2]; Mus musculus, po) was 135 mg/kg.
With FC(F)C(F)(F)Sc1nc2c([nH]1)C(c1ccccc1)c1ccccc1-2 (stereo not drawn) [Example 1, 1,8-Dihydro(or 3,8-dihydro)-2-[(1,1,2,2-tetrafluoroethyl)thio]-8-phenyl-indeno[1,2-d]imidazole] the ED50 [1, 3] was 0.79 mg/kg and the ED50 [2, 4] was 0.16 mg/kg.
For O=S(=O)(c1nc2c([nH]1)C(c1ccccc1)c1ccccc1-2)C(F)(F)C(F)F (stereo not drawn) [Example 2, 1,8-Dihydro(or 3,8-dihydro)-2-[(1,1,2,2-tetrafluoroethyl)sulfonyl]-8-phenyl-indeno[1,2-d]imidazole], the ED50 [1, 3] was 0.2 mg/kg and the ED50 [2, 4] was 0.04 mg/kg.
Work on FC(F)(F)Sc1nc2c([nH]1)C(c1ccccc1)c1ccccc1-2 (stereo not drawn) [Example 3, 1,8-Dihydro(or 3,8-dihydro)-2-[(trifluoromethyl)thio]-8-phenyl-indeno[1,2-d]imidazole] yielded an ED50 [1, 3] of 1.1 mg/kg and an ED50 [2, 4] of 0.26 mg/kg.
Compound O=S(=O)(c1nc2c([nH]1)C(c1ccccc1)c1ccccc1-2)C(F)(F)F (stereo not drawn) [Example 4, 1,8-Dihydro(or 3,8-dihydro)-2-[(trifluoromethyl)sulfonyl]-8-phenyl-indeno[1,2-d]imidazole] has an ED50 [1, 3] of 1.35 mg/kg and an ED50 [2, 4] of 0.04 mg/kg.
[O-][S+](c1nc2c([nH]1)C(c1ccccc1)c1ccccc1-2)C(F)(F)F (stereo not drawn) [Example 5, 1,8-Dihydro(or 3,8-dihydro)-2-[(trifluoromethyl)sulfinyl]-8-phenyl-indeno[1,2-d]imidazole] showed an ED50 [1, 3] of 0.62 mg/kg and an ED50 [2, 4] of 0.057 mg/kg.
With CSc1nc2c([nH]1)C(c1ccccc1)c1ccccc1-2 (stereo not drawn) [Example 6, 1,8-Dihydro(or 3,8-dihydro)-2-(methylthio)-8-phenyl-indeno[1,2-d]imidazole] the ED50 [1, 3] was 50 mg/kg and the ED50 [2, 4] was 27 mg/kg.
Compound CS(=O)(=O)c1nc2c([nH]1)C(c1ccccc1)c1ccccc1-2 (stereo not drawn) [Example 7, 1,8-Dihydro(or 3,8-dihydro)-2-(methylsulfonyl)-8-phenyl-indeno[1,2]-dimidazole] has an ED50 [1, 3] of 19 mg/kg and an ED50 [2, 4] of 14 mg/kg.
Work on COc1ccc2c(c1)C(c1ccccc1)c1[nH]c(SC(F)(F)F)nc1-2 (stereo not drawn) [Example 8] yielded an ED50 [1, 3] of 10.5 mg/kg and an ED50 [2, 4] of 2.4 mg/kg.
With COc1cccc2c1-c1nc(SC(F)(F)F)[nH]c1C2c1ccccc1 (stereo not drawn) [Example 9] the ED50 [1, 3] was over 9 mg/kg and the ED50 [2, 4] was 8.3 mg/kg.
With FC(F)(F)Sc1nc2c([nH]1)C(c1ccc(Cl)c(Cl)c1)c1ccccc1-2 (stereo not drawn) [Example 10] the “Paw volume reduction at indicated daily dose (Adjuvant Arthritic)” value ([1]; rat) was 44% and the ED50 [2, 4] was 1.3 mg/kg.
CCSc1nc2c([nH]1)C(c1ccccc1)c1ccccc1-2 (stereo not drawn) [Example 11] gave an ED50 [1, 3] of 14 mg/kg and an ED50 [2, 4] of 14 mg/kg.
CCCCSc1nc2c([nH]1)C(c1ccccc1)c1ccccc1-2 (stereo not drawn) [Example 12] gave an ED50 [1, 3] of over 27 mg/kg and an ED50 [2, 4] of 65 mg/kg.
Work on COc1ccc(C2c3ccccc3-c3nc(SC(F)(F)F)[nH]c32)cc1 (stereo not drawn) [Example 13] yielded an ED50 [1, 3] of 3.2 mg/kg and an ED50 [2, 4] of 0.147 mg/kg.
COc1ccc(C2c3ccccc3-c3nc(S(=O)(=O)C(F)(F)F)[nH]c32)cc1 (stereo not drawn) [Example 14] showed an ED50 [1, 3] of 0.5 mg/kg and an ED50 [2, 4] of 0.2 mg/kg.
For Cc1ccc2c(c1)-c1nc(SC(F)(F)C(F)F)[nH]c1C2c1ccccc1 (stereo not drawn) [Example 15], the ED50 [1, 3] was 3.6 mg/kg and the ED50 [2, 4] was 5 mg/kg.
Cc1ccc2c(c1)-c1nc(S(=O)(=O)C(F)(F)C(F)F)[nH]c1C2c1ccccc1 (stereo not drawn) [Example 16] was tested, and the “Paw volume reduction at indicated daily dose (Adjuvant Arthritic)” value ([1]; rat) was 39% and the ED50 [2, 4] was 0.064 mg/kg.
With Fc1ccc(C2c3ccccc3-c3nc(SC(F)(F)F)[nH]c32)cc1 (stereo not drawn) [Example 17] the ED50 [1, 3] was 2.4 mg/kg and the ED50 [2, 4] was 0.14 mg/kg.
With CC(C)Cc1ccc(C(C)C(=O)O)cc1 (stereo not drawn) [Ibuprofen, reference compound] the ED50 [1, 3] was 100 mg/kg and the ED50 [2, 4] was 10 mg/kg.
Work on COc1ccc2c(c1)c(CC(=O)O)c(C)n2C(=O)c1ccc(Cl)cc1 [Indomethacin, reference compound] yielded an ED50 ([1]; Rattus norvegicus, po) of 0.3 mg/kg and an ED50 ([2]; Mus musculus, po) of 0.35 mg/kg.
Work on CCCCC1C(=O)N(c2ccccc2)N(c2ccccc2)C1=O [Phenylbutazone, phenylbutazone, reference compound] yielded an ED50 [1, 3] of 10 mg/kg and an ED50 [2, 4] of 80 mg/kg.

Source: patent US4548946A, “Antiinflammatory and/or analgesic 1,8-Dihydro-(or 3,8-dihydro)-8-aryl-2-[(substituted)thio]-indeno[1,2-d]imidazoles and their corresponding sulfoxides and sulfones” (E. I. Du Pont de Nemours and Company, priority 1982, dated 1985)
